The values below come from ChEMBL document CHEMBL1201862, “PubChem BioAssay data set” (2004).

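Each compound was tested at five concentrations against cells in 96-well plates for 48 hours. GI50: concentration for 50% inhibition of growth.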 Active and inactive are the calls of the source. Rule as the data show it: active = GI50 up to about 1.1 µM and inactive = higher.

Among the test systems are HCT-15; LOX IMVI; 786-0; SK-MEL-28; KM12; SR; NCI-H460; OVCAR-4; NCI-H23; EKVX; SF-268; SK-MEL-5; Malme-3M; SF-295; A498; HCT-116; UO-31; CCRF-CEM; RPMI-8226.
Test in all cases: growth of human tumour cells (NCI), 48 h

Take `O=C(Cc1nc2ccc(C(=O)c3ccccc3)cc2nc1O)C(=O)Nc1ccccc1[N+](=O)[O-]`: the GI50 is 46.3 µM with HCT-15; 67.9 µM (inactive) in the assay with LOX IMVI; 80.2 µM (inactive) in the assay with 786-0; 94.8 µM (inactive) in the assay on SK-MEL-28; 24 µM (inactive) in the assay with KM12; 29.2 µM (inactive) in the assay with SR. The GI50 in the assay on NCI-H460 is 53.6 µM (inactive); with OVCAR-4, 32.4 µM (inactive); with NCI-H23, 42.2 µM (inactive); with EKVX, 89.7 µM (inactive); with SF-268, 87.7 µM (inactive); in the assay with SK-MEL-5, 46 µM (inactive). Besides, the GI50 in the assay on Malme-3M is 80.9 µM (inactive); in the assay on SF-295, 48.6 µM (inactive); in the assay with A498, > 100 µM (inactive); with HCT-116 it was 57 µM (inactive); in the assay with UO-31, 40 µM (inactive); in the assay with CCRF-CEM it was 50.9 µM (inactive). Also, the GI50 in the assay with RPMI-8226 is 34.1 µM (inactive).
Consider `CC(=O)OC[C@H]1On2nnnc2[C@H](OC(C)=O)[C@@H](OC(C)=O)[C@@H]1OC(C)=O`, for which the GI50 is over 100 µM in the assay on HCT-15; > 100 µM (inactive) in the assay on LOX IMVI; > 100 µM (inactive) in the assay on 786-0; > 100 µM (inactive) in the assay with SK-MEL-28; > 100 µM (inactive) with KM12; > 100 µM (inactive) with SR. The GI50 in the assay on NCI-H460, in the assay on OVCAR-4, in the assay on NCI-H23, with EKVX, in the assay with SF-268 and with SK-MEL-5 was > 100 µM (inactive) in each case. Besides, the GI50 with Malme-3M, in the assay on SF-295, in the assay with A498, in the assay on HCT-116, with UO-31 and with CCRF-CEM was > 100 µM (inactive) each time. The GI50 in the assay on RPMI-8226 was > 100 µM (inactive).
Turning to `COc1ccc2c(-c3csc(-c4c[nH]c5ccccc45)n3)c[nH]c2c1`, the GI50 was 1.45 µM in the assay with HCT-15; 2.75 µM (inactive) in the assay on LOX IMVI; 5.53 µM (inactive) in the assay on 786-0; 14.6 µM (inactive) with SK-MEL-28; 3.21 µM (inactive) with KM12; 1.56 µM (inactive) with SR. Besides, the GI50 was 2.29 µM (inactive) in the assay on NCI-H460; 11 µM (inactive) in the assay with OVCAR-4; 11.6 µM (inactive) with NCI-H23; 1.37 µM (inactive) in the assay on EKVX; 4.14 µM (inactive) with SF-268; 7.18 µM (inactive) with SK-MEL-5. Further, the GI50 in the assay on Malme-3M was 4.95 µM (inactive); in the assay on SF-295, 9.64 µM (inactive); in the assay with A498, 8.65 µM (inactive); with HCT-116, 3.68 µM (inactive); in the assay with UO-31, 5.9 µM (inactive); in the assay on CCRF-CEM it was 4.36 µM (inactive). The GI50 with RPMI-8226 is 3.77 µM (inactive).
For the compound `c1csc(-c2csc(-c3ccsc3)c2)c1`, the GI50 in the assay on HCT-15 was over 100 µM; in the assay on LOX IMVI it was > 100 µM (inactive); with 786-0, > 100 µM (inactive); in the assay with SK-MEL-28 it was > 100 µM (inactive); in the assay on KM12, > 100 µM (inactive); in the assay on SR it was 97.3 µM (inactive). In addition, the GI50 with NCI-H460 is > 100 µM (inactive); in the assay with OVCAR-4, > 100 µM (inactive); with NCI-H23, > 68.2 µM (inactive); with EKVX, > 65.8 µM (inactive); in the assay with SF-268 it was > 100 µM (inactive); in the assay on SK-MEL-5, > 100 µM (inactive). Also, the GI50 with Malme-3M is 56.4 µM (inactive); in the assay with SF-295, > 100 µM (inactive); in the assay on A498, > 100 µM (inactive); with HCT-116, > 100 µM (inactive); in the assay on UO-31, > 70.1 µM (inactive); in the assay on CCRF-CEM, > 100 µM (inactive). The GI50 in the assay with RPMI-8226 is > 100 µM (inactive).
On to `CN(C)CCNC(=O)c1cccc2c(NCCN(C)C)c3ccccc3nc12`, for which the GI50 with HCT-15 is 3.63 µM; in the assay with LOX IMVI it was 1.55 µM (inactive); in the assay with 786-0, 1.7 µM (inactive); in the assay with SK-MEL-28 it was 13.7 µM (inactive); with KM12, 2.79 µM (inactive); with SR it was 0.982 µM (active). Also, the GI50 is 1.37 µM (inactive) with NCI-H460; 2.49 µM (inactive) with OVCAR-4; 2.33 µM (inactive) in the assay on NCI-H23; 2.99 µM (inactive) in the assay on EKVX; 3.07 µM (inactive) with SF-268; 3.48 µM (inactive) with SK-MEL-5. The GI50 is 3.85 µM (inactive) in the assay with Malme-3M; 4.93 µM (inactive) in the assay with SF-295; 1.94 µM (inactive) with A498; 1.48 µM (inactive) in the assay on HCT-116; 2.92 µM (inactive) in the assay with UO-31; 2 µM (inactive) in the assay on CCRF-CEM. Moreover, the GI50 in the assay on RPMI-8226 is 2.41 µM (inactive).
In the case of `COc1ccc(NC2Oc3cc4c(cc3C(c3cc(OC)c(OC)c(OC)c3)C2C)OCO4)cc1` (configuration not stated), the GI50 in the assay with HCT-15 was 0.485 µM; with LOX IMVI, 0.476 µM (active); in the assay with 786-0, 0.544 µM (active); in the assay on SK-MEL-28, 1.32 µM (inactive); with KM12, 0.381 µM (active); with SR it was 0.352 µM (active). Besides, the GI50 in the assay on NCI-H460 was 0.429 µM (active); in the assay on OVCAR-4 it was 0.566 µM (active); in the assay on NCI-H23, 0.847 µM (active); in the assay on EKVX it was 3.56 µM (inactive); in the assay with SF-268 it was 0.959 µM (active); in the assay with SK-MEL-5 it was 0.33 µM (active). The GI50 in the assay on Malme-3M is 0.365 µM (active); in the assay with SF-295, 0.268 µM (active); in the assay with A498, 0.316 µM (active); with HCT-116, 0.364 µM (active); in the assay with UO-31, 0.891 µM (active); in the assay on CCRF-CEM, 0.944 µM (active). Moreover, the GI50 in the assay on RPMI-8226 is 0.525 µM (active).
For `O=C(O[C@H](/C=C/c1ccccc1)P1(=O)N(Cc2ccccc2)[C@@H]2CCCC[C@H]2N1Cc1ccccc1)c1ccccc1`, the GI50 in the assay with HCT-15 was 2.91 µM; in the assay with LOX IMVI, 3.41 µM (inactive); with 786-0, 3.83 µM (inactive); with SK-MEL-28, 3.05 µM (inactive); in the assay with KM12, 3.24 µM (inactive); in the assay on SR it was 3.44 µM (inactive). Besides, the GI50 was 3.46 µM (inactive) in the assay on NCI-H460; 1.79 µM (inactive) in the assay with OVCAR-4; 2.47 µM (inactive) in the assay with NCI-H23; 3.96 µM (inactive) in the assay with EKVX; 4.06 µM (inactive) in the assay on SF-268; 1.86 µM (inactive) in the assay on SK-MEL-5. Also, the GI50 in the assay on Malme-3M is 2.49 µM (inactive); in the assay with SF-295, 3.79 µM (inactive); in the assay with A498 it was 5.57 µM (inactive); in the assay with HCT-116, 3.01 µM (inactive); with UO-31, 4.5 µM (inactive); with CCRF-CEM, 2.74 µM (inactive). For the same compound, in the assay on RPMI-8226, the GI50 was 2.33 µM (inactive).
On to `COC(=O)/C=C/C1(O)C=CC(=O)C=C1`, for which the GI50 with HCT-15 was 2.66 µM; with LOX IMVI, 2.07 µM (inactive); in the assay with 786-0 it was 2.23 µM (inactive); with SK-MEL-28, 3.44 µM (inactive); in the assay with KM12 it was 2.32 µM (inactive); with SR, 2.55 µM (inactive). Moreover, the GI50 is 16.3 µM (inactive) with NCI-H460; 3.94 µM (inactive) in the assay on OVCAR-4; 3.31 µM (inactive) in the assay with NCI-H23; 3.61 µM (inactive) in the assay with EKVX; 2.22 µM (inactive) in the assay on SF-268; 4.65 µM (inactive) in the assay on SK-MEL-5. Moreover, the GI50 with Malme-3M is 2.62 µM (inactive); in the assay with SF-295 it was 11 µM (inactive); in the assay with A498 it was 26.9 µM (inactive); in the assay with HCT-116, 1.88 µM (inactive); in the assay with UO-31, 1.7 µM (inactive); with CCRF-CEM, 1.77 µM (inactive). Moreover, the GI50 with RPMI-8226 was 2.45 µM (inactive).
